Here are results for two molecules from US20050113292A1 (priority 2003, published 2005).

The test system of test [1] is HIV-1 mediated cell-cell fusion (R8 virus). The note with it: mediated cell-cell fusion (R8 virus).
The subject of a further test is T-tropic (R8) HIV-1. The settings on record: T-tropic (R8).
In the next test the test system is M-tropic (BAL) HIV-1. The note with it: M-tropic (BAL).

Regarding `CC(C)C[C@H](NC(=O)[C@H](CO)NC(=O)[C@H](C)NC(=O)[C@H](Cc1c[nH]c2ccccc12)NC(=O)[C@H](CCCCN)NC(=O)[C@H](CC(=O)O)NC(=O)[C@H](CC(C)C)NC(=O)[C@H](CCC(=O)O)NC(=O)[C@H](CC(C)C)NC(=O)[C@@H]1CSC(C(=O)NCCCC[C@H](NC(=O)CCNC(=O)C2N[C@H](C(=O)N[C@@H](CC(C)C)C(=O)N[C@@H](CCC(=O)O)C(=O)N[C@@H](CC(C)C)C(=O)N[C@@H](CC(=O)O)C(=O)N[C@@H](CCCCN)C(=O)N[C@@H](Cc3c[nH]c4ccccc34)C(=O)N[C@@H](C)C(=O)N[C@@H](CO)C(=O)N[C@@H](CC(C)C)C(=O)N[C@@H](Cc3c[nH]c4ccccc34)C(=O)N[C@@H](CC(N)=O)C(=O)N[C@@H](Cc3c[nH]c4ccccc34)C(=O)N[C@@H](Cc3ccccc3)C(=O)O)CS2)C(=O)N[C@@H](CO)C(=O)N[C@@H](CO)C(=O)N[C@@H](C)C(N)=O)N1)C(=O)N[C@@H](Cc1c[nH]c2ccccc12)C(=O)N[C@@H](CC(N)=O)C(=O)N[C@@H](Cc1c[nH]c2ccccc12)C(=O)N[C@@H](Cc1ccccc1)C(=O)O` (stereo partly drawn) [Compound 2α-C13], the results for the IC50 (in test [1]; in the test with T-tropic (R8) HIV-1; in the test on M-tropic (BAL) HIV-1) were 290 nM, 310 nM and 430 nM, respectively.

Turning to `CC(C)C[C@H](NC(=O)[C@H](CO)NC(=O)[C@H](C)NC(=O)[C@H](Cc1c[nH]c2ccccc12)NC(=O)[C@H](CCCCN)NC(=O)[C@H](CC(=O)O)NC(=O)[C@H](CC(C)C)NC(=O)[C@H](CCC(=O)O)NC(=O)[C@H](CC(C)C)NC(=O)[C@H](CC(C)C)NC(=O)[C@H](CCC(=O)O)NC(=O)[C@H](CCC(N)=O)NC(=O)[C@H](CCC(=O)O)NC(=O)[C@H](CC(N)=O)NC(=O)[C@H](CCCCN)NC(=O)[C@H](CCC(=O)O)NC(=O)[C@H](CCC(N)=O)NC(=O)[C@H](CCC(N)=O)NC(=O)[C@H](CC(N)=O)NC(=O)[C@H](CCC(N)=O)NC(=O)[C@@H]1CSC(C(=O)NCCCC[C@H](NC(=O)CCNC(=O)C2N[C@H](C(=O)N[C@@H](CCC(N)=O)C(=O)N[C@@H](CC(N)=O)C(=O)N[C@@H](CCC(N)=O)C(=O)N[C@@H](CCC(N)=O)C(=O)N[C@@H](CCC(=O)O)C(=O)N[C@@H](CCCCN)C(=O)N[C@@H](CC(N)=O)C(=O)N[C@@H](CCC(=O)O)C(=O)N[C@@H](CCC(N)=O)C(=O)N[C@@H](CCC(=O)O)C(=O)N[C@@H](CC(C)C)C(=O)N[C@@H](CC(C)C)C(=O)N[C@@H](CCC(=O)O)C(=O)N[C@@H](CC(C)C)C(=O)N[C@@H](CC(=O)O)C(=O)N[C@@H](CCCCN)C(=O)N[C@@H](Cc3c[nH]c4ccccc34)C(=O)N[C@@H](C)C(=O)N[C@@H](CO)C(=O)N[C@@H](CC(C)C)C(=O)N[C@@H](Cc3c[nH]c4ccccc34)C(=O)N[C@@H](CC(N)=O)C(=O)N[C@@H](Cc3c[nH]c4ccccc34)C(=O)N[C@@H](Cc3ccccc3)C(=O)O)CS2)C(=O)N[C@@H](CO)C(=O)N[C@@H](CO)C(=O)N[C@@H](C)C(N)=O)N1)C(=O)N[C@@H](Cc1c[nH]c2ccccc12)C(=O)N[C@@H](CC(N)=O)C(=O)N[C@@H](Cc1c[nH]c2ccccc12)C(=O)N[C@@H](Cc1ccccc1)C(=O)O` (stereo partly drawn) [Compound 2α-C24], the 50% inhibitory concentration (IC50) (in general, the concentration needed to halve the response being measured) came to 38 nM in test [1], 80 nM with T-tropic (R8) HIV-1 and 67 nM with M-tropic (BAL) HIV-1.
